Reference: patent US20110318412A1, “LOW DOSE DOXEPIN FORMULATIONS, INCLUDING BUCCAL, SUBLINGUAL AND FASTMELT FORMULATIONS, AND USES OF THE SAME TO TREAT INSOMNIA” (Somaxon Pharmaceuticals, Inc., priority 2006, published 2011)
Where a name gives a salt, the structure may show the parent alone.

Tests used:
human subjects = assay: Sleep onset after a 3 mg doxepin hydrochloride capsule in human subjects; format: in vivo; settings: human subjects averaging about 70 kg
[1] = Doxepin plasma concentration after a 3 mg capsule in humans; format: in vivo, human
Procedure: An estimate of the doxepin plasma concentrations associated with the initiation of sleep was obtained by combining data from multiple studies.
In a separate study, in humans averaging about 70 kg, receiving a 3 mg capsule comprising doxepin hydrochloride, lactose monohydrate fast-flow, sodium lauryl sulfate and magnesium stearate, the average plasma concentration at 60 minutes was approximately 0.1 ng/mL.
Without being limited, it is believed that the doxepin plasma concentration achieved approximately 1 hour after a 3 mg dose is sufficient for sleep initiation. The conclusion is that doxepin plasma concentrations of 0.1 ng/mL or greater were associated with initiation of sleep.

[2] = Wu-Benet, 2005; cited from earlier work
[3] = Measured physicochemical parameters (logP, pKa) used for the simulation
[4] = Measured bioavailability used for the simulation; settings: in vivo

Row | Compound | sleep onset compared with a placebo dose (human subjects; 3 mg capsule) | time of sleep onset after dosing (human subjects; 3 mg capsule (doxepin hydrochloride, lactose monohydrate fast-flow, sodium lauryl sulfate, magnesium stearate)) | concentration at 60 min ([1]; human, plasma, oral, humans averaging about 70 kg, 3 mg capsule, separate study) [ng/mL] | Biopharmaceutic Classification System class [2] | solubility (Biopharmaceutic Classification System) [2] | doxepin plasma concentration associated with initiation of sleep ([1]; estimate from combining data from multiple studies) [ng/mL] | logP [3] | pKa [3] | bioavailability [4] [%]
1 | CN(C)CCC=C1c2ccccc2COc2ccccc21 (mixture of isomers) [doxepin hydrochloride] | significantly earlier than with a placebo dose | about 60 minutes | ~0.1 | Class One | high solubility | – | – | – | –
2 | CN(C)CCC=C1c2ccccc2COc2ccccc21 (mixture of isomers) [doxepin] | – | – | – | – | – | ≥ 0.1 | 4.13 | 8.96 | 29
